Test results reported in patent US9962383B2, “Compounds, compositions and methods of agelastatin alkaloids” (Massachusetts Institute of Technology, priority 2013, dated 2018).

Tests used:
Human Erythrocytes = test: Hemolysis assay using human erythrocytes; assay type: cell-based; conditions: hemolysis after 2 h
Procedure: FIG. 1. Hemolytic activity of (−)-agelastatins A-F and advanced intermediates. Compounds were tested at 333 μM and hemolysis was evaluated after 2 h. DMSO and water served as the negative and positive controls for hemolysis, respectively. Error bars represent standard deviation of the mean, n=3.
To prepare the erythrocytes, 0.1 mL of human blood was centrifuged (10,000 g, 2 min). The pellet was washed three times with saline (0.9% NaCl) via gentle resuspension and centrifugation (10,000 g, 2 min). Following the final wash, the erythrocytes were resuspended in 0.4 mL red blood cell (RBC) buffer (10 mM Na2HPO4, 150 mM NaCl, 1 mM MgCl2, pH 7.4).
DMSO stocks of compounds were added to 0.5 mL tubes in singlicate (1 μL, 3.3% DMSO final). The stocks were diluted with 19 μL RBC buffer. Positive control tubes contained DMSO in water, and negative control tubes contained DMSO in RBC buffer. A suspension of washed erythrocytes (10 μL) was added to each tube, and samples were incubated at 37° C. for 2 hours. Samples were centrifuged (10,000 g, 2 min), and the supernatant was transferred to a clear, sterile 384-well plate. The absorbance of the supernatants was measured at λ=540 nm, and percent hemolysis was calculated relative to the average absorbance values measured for the controls.

synchronized U-937 cells = test: Cell cycle arrest in thymidine-synchronized U-937 cells; assay type: cell-based, human; conditions: 16 hours, PI, flow cytometry
Procedure: Samples were fixed, treated with an RNAse, stained with PI, and analyzed by flow cytometry. Taxol, a microtubule stabilizer, was used as a positive control. Error bars represent standard deviation of the mean, n=3. * p<0.01. PI=propidium iodide.
U-937 cells were split to 50% confluency (250,000 cells/mL) and treated with 2 mM thymidine for 10 hours. The cells were then pelleted (500 g, 3 minutes) and washed with PBS before being resuspended in thymidine-free media and allowed to recover for 13 hours. The cells were then re-blocked with 2 mM thymidine for 10 hours, and then washed with PBS as before and resuspended in media (250,000 cells/mL).
DMSO stocks of compounds were added to a 24-well plate in triplicate (0.2% DMSO final), after which 1 mL of the prepared cell suspension was added. Following a 16 h incubation, the cell suspensions were transferred to 2 mL tubes and pelleted (600 g, 3 min). The media was removed by aspiration, and the cells were fixed with 0.5 mL of ice cold 70% ethanol with vortexing. The samples were fully fixed at −20° C. for 3 hours. The samples were then pelleted (1000 g, 5 min) and the supernatant was removed via aspiration. […] Prior to reading, the samples were taken up in 150 μL of 50 μg/mL propidium iodide in PBS and transferred to flow cytometry tubes. Samples were analyzed based on whole, single cells.

[1] = system: human cell lines (U-937, HeLa, A549, BT549, IMR90); test: Ability to induce cell death in the panel of five human cell lines (Table 3); assay type: cell-based; conditions: 48-hour exposure, 1 nM to 10 μM, cell lines of Table 3
Procedure: Six (−)-agelastatins along with eight closely related derivatives prepared in the above examples were tested (Table 3). The six (−)-agelastatin alkaloids (1-6, respectively), (−)-O-methyl-di-epi-agelastatin A (50), (−)-dehydroagelastatin A (51), (−)-di-epi-agelastatin C (52), (+)-O-methyl-pre-agelastatin A and D (39 and 53, respectively), along with bicyclic pyrroles (+)-44, (+)-45, and triazone (+)-48 were tested for their ability to induce cell death in four human cancer cell lines (U-937, lymphoma; HeLa, cervical carcinoma; A549, non-small cell lung carcinoma; and BT549, breast carcinoma) and one immortalized normal human cell line (IMR90, lung fibroblasts) after a 48-hour exposure. […] Furthermore, enhanced activities in U-937 (20×) cell relative to the other cell lines (Table 3) were observed.
Adherent cells (HeLa, A549, BT549, and IMR90) were added into 96-well plates (5,000 cells/well for HeLa cell line; 2,000 cells/well for A549, BT549, and IMR90 cell lines) in 100 μL media and were allowed to adhere for 2-3 hours. Compounds were solubilized in DMSO as 100× stocks, added directly to the cells (100 μL final volume), and tested over a range of concentrations (1 nM to 10 μM) in triplicate (1% DMSO final) on a half-log scale. DMSO and cell-free wells served as the live and dead control, respectively. After 48 h of continuous exposure, the plates were evaluated using the SRB colorimetric assay as described previously (V. Vichai, K. Kirtikara, Nature Prot., 2006, 1, 1112). Briefly, media was removed from the plate, and cells were fixed by the addition of 100 μL cold 10% trichloroacetic acid in water. After incubating at 4° C. for 1 h, the plates were washed in water and allowed to dry. Sulforhordamine B was added as a 0.057% solution in 1% acetic acid (100 μL), and the plates were incubated at room temperature for 30 min, washed in 1% acetic acid, and allowed to dry. The dye was solubilized by adding 10 mM Tris base solution (pH 10.5, 200 μL) and incubating at room temperature for 30 min Plates were read at λ=510 nm. IC50 values were determined from three or more independent experiments using TableCurve (San Jose, Calif.).
In a 96-well plate, compounds were pre-added as DMSO stocks (1% final) in triplicate to achieve final concentrations of 1 nM to 10 μM on a half log scale. DMSO and cell-free wells served as the live and dead control, respectively. Suspension cells (U-937, CEM, CA46, Daudi, HL-60, and Jurkat; 10,000 cells/well) cells were distributed in 100 μL media to the compound-containing plate. After 48 h, cell viability was assessed by adding 20 μL of a PMS/MTS solution (A. H. Cory, T. C. Owen, J. A. Barltrop, J. G. Cory, Cancer Commun., 1991, 3, 207) to each well, allowing the dye to develop at 37° C. until the live control had processed MTS, and reading the absorbance at λ=490 nm. IC50 values were determined from three or more independent experiments using TableCurve (San Jose, Calif.).

Jurkat = test: 48-hour IC50 by MTS, Jurkat acute T-cell leukemia cells; assay type: cell-based, human
Procedure: Cells were grown in media supplemented with fetal bovine serum (FBS) and antibiotics (100 μg/mL penicillin and 100 U/mL streptomycin). […] Cells were incubated at 37° C. in a 5% CO2, 95% humidity atmosphere.
In a 96-well plate, compounds were pre-added as DMSO stocks (1% final) in triplicate to achieve final concentrations of 1 nM to 10 μM on a half log scale. DMSO and cell-free wells served as the live and dead control, respectively. […] IC50 values were determined from three or more independent experiments using TableCurve (San Jose, Calif.).

tubulin dynamics = test: Tubulin microscopy with HeLa cells; assay type: cell-based, human; conditions: 16 hours, confocal microscopy
Procedure: HeLa cells were treated with compound for 16 hours, fixed, stained, and visualized using confocal microscopy.
Round, 1.5 mm coverslips (No. 1.5) were sterilized with ultraviolet light and placed in a 12-well plate. HeLa cells (100,000 cells/well) were added and allowed to adhere for eight hours. Compounds were then added as DMSO stocks to achieve a final DMSO concentration of 1%, and the plates were returned to the incubator for 16 hours.
Following incubation, the media was removed, and the coverslips were fixed with 0.5 mL Microtubulin Stabilizing Buffer (MTSB, 80 mM PIPES, pH 6.8, 1 mM MgCl2, 5 mM EGTA, 0.5% TX-100)+0.5% glutaraldehyde for 10 minutes at room temperature, after which the fixative was removed and the sample was quenched with the addition of 0.5 mL of freshly-prepared 1 mg/mL NaBH4 in PBS. After a 5 min incubation, the solution was removed by aspiration and the coverslips were washed with PBS.
Coverslips were transferred to parafilm-lined culture dishes (cell-side up), and 40 μL of 50 μg/mL RNase A in Antibody Diluting Solution (AbDil, PBS, pH 7.4, 0.2% TX-100, 2% BSA, 0.1% NaN3) with 1:50 dilution of anti-α-tubulin-FITC antibody was added to all samples. The samples were allowed to incubate at room temperature in the dark for 2.5 hours, after which the coverslips were washed three times with PBS+0.1% TX-100. […]

CN1C(=O)N[C@H]2[C@@H]3NC(=O)c4ccc(Br)n4[C@@H]3C[C@]21O [(−)-1, (−)-agelastatin A]
nonspecific hemolysis of red blood cells (Human Erythrocytes; compounds at 333 μM): none | concentration without affecting normal red blood cells (Human Erythrocytes): > 333 µM | G2/M cell cycle arrest (synchronized U-937 cells): dose-dependent G2/M cell cycle arrest | activity (ability to induce cell death) in words [1]: highest potency in all cell lines tested | IC50 (Jurkat): 74 ± 7 nM | effect on tubulin dynamics (tubulin dynamics): do not affect tubulin dynamics
